Test results: patent US4299822A, “N-Trifluoroacetyladriamycin-14-O-hemiglutarate and -hemiadipate and therapeutic compositions containing same” (Sidney Farber Cancer Institute, Inc., priority 1980, dated 1981)
In brackets after ≈: the same amount, converted by molar mass. Where two headings read alike, the source gives them in different places.

Columns and labels:
[1] = steroid administration to patients with vehicle-associated chest pain; cited from earlier work
[2] = hydrolytic stability in aqueous buffers, TLC quantification of N-trifluoroacetyladriamycin; assay type: physicochemical; conditions: for degraded at 24 h: aqueous buffer, dark, read-out: Percent hydrolyzed
Text: The results were as follows:

murine P388 leukemia = experiment: in vivo antitumor activity against murine P388 leukemia, ip qd 1-4; set-up: species or system mouse (BDF1 male mice)
Protocol: (§1) The toxicity and therapeutic effectiveness of the new compounds and active agents of the present invention are shown by in vitro assays and by in vivo evaluations in mice. The in vitro assays measure the growth inhibiting activity of the materials against the CCRF-CEM cell line in culture. The cell line was derived from the peripheral blood of a child with lymphoblastic leukemia as described by Foley et al., Cancer, Volume 18, page 522 et seq. (1965), and the assays were carried out by the procedure of Foley and Lazarus, Biochem. Pharmacol., Volume 16, pages 659 et seq. (1967), the results being reported in terms of the dose in micromoles per liter required to inhibit growth of the cultures by 50% relative to control cultures to which no drug had been added (ID50). The in vivo evaluations were made by preparing a 0.2 to 0.7% by weight solution of the active agent in a formulation consisting of 10% by volume of each polyethoxylated castor oil and ethanol in saline and injecting the dosage intraperitoneally. The evaluations were made of the antitumor activity against the murine P388 and murine L1210 leukemias in BDF1 male mice according to standard National Cancer Institute protocols as set forth by Geran et al., Cancer Chemotherap. Rep., Part 3, Volume 3, pages 1 et seq. (1972) , except that a qd 1-4 schedule was used in place of qd 1-9 in order to conserve materials.
Optimal dosage was determined by testing doses which were at several multiples of 10 milligrams/kilogram of body weight. Some effectiveness can be observed at dosages ranging from 30 to 70 milligrams/kilogram of body weight, depending upon the particular compound employed.
The following table summarizes the in vivo antitumor activity of the same compounds as those in Table I, evaluated against murine P388 leukemia as described above. All compounds were administered intraperitoneally, adriamycin in clinical formulation (1 part adriamycin plus 5 parts lactose, in 0.9% saline), the other compounds in 10% Emulphor EL-620, 10% ethanol, 80% isotonic saline.

mice = experiment: toxicity to mice; assay type: in vivo, mouse
Protocol: as §1

CCRF-CEM cells = experiment: growth inhibition of CCRF-CEM cell line in culture; assay type: cell-based; conditions: Homo sapiens, read-out: ID50 (dose required to inhibit growth of the cultures by 50% relative to control)
Text: The in vitro assays measure the growth inhibiting activity of the materials against the CCRF-CEM cell line in culture. […] The in vivo evaluations were made by preparing a 0.2 to 0.7% by weight solution of the active agent in a formulation consisting of 10% by volume of each polyethoxylated castor oil and ethanol in saline and injecting the dosage intraperitoneally. The evaluations were made of the antitumor activity against the murine P388 and murine L1210 leukemias in BDF1 male mice according to standard National Cancer Institute protocols as set forth by Geran et al., Cancer Chemotherap. Rep., Part 3, Volume 3, pages 1 et seq.

[3] = cytotoxicity or anti-tumor activity (general statement)
Protocol: as §1

[4] = clinical use; cited from earlier work
[5] = each dose 30.0 mg/kg ip, 10% Emulphor EL-620, 10% ethanol, 80% saline
[6] = each dose 40.0 mg/kg ip, 10% Emulphor EL-620, 10% ethanol, 80% saline
[7] = each dose 50.0 mg/kg ip, 10% Emulphor EL-620, 10% ethanol, 80% saline
[8] = each dose 60.0 mg/kg ip, 10% Emulphor EL-620, 10% ethanol, 80% saline
[9] = each dose 70.0 mg/kg ip, 10% Emulphor EL-620, 10% ethanol, 80% saline
[10] = each dose 1.0 mg/kg ip, clinical formulation (lactose, 0.9% saline)
[11] = each dose 2.0 mg/kg ip, clinical formulation (lactose, 0.9% saline)
[12] = each dose 3.0 mg/kg ip, clinical formulation (lactose, 0.9% saline)
[13] = each dose 4.0 mg/kg ip, clinical formulation (lactose, 0.9% saline)
[14] = each dose 5.0 mg/kg ip, clinical formulation (lactose, 0.9% saline)

Structure (SMILES): C[C@]12CCC(=O)C=C1CC[C@@H]1[C@@H]2[C@@H](O)C[C@@]2(C)[C@H]1CC[C@]2(O)C(=O)COC(=O)CCC(=O)O [hydrocortisone hemisuccinate]
- effect on chest pain symptom complex during valerate infusion [1]: eliminated the symptom complex in those cases

Structure (SMILES): COc1cccc2c1C(=O)c1c(O)c3c(c(O)c1C2=O)CC(O)(C(=O)COC(=O)CCCC(=O)O)CC3OC1CC(NC(=O)C(F)(F)F)C(O)C(C)O1 (stereo not shown) [N-Trifluoroacetyladriamycin-14-O-hemiglutarate]
- degraded at 24 h ([2]; pH 7.4, pH 7.40, 4° C.): 0%
- degraded at 24 h ([2]; pH 7.4, pH 7.40, 27° C.): 1%
- degraded at 24 h ([2]; pH 9, pH 9.00, 4° C.): < 0.5%
- degraded at 24 h ([2]; pH 9, pH 9.00, 27° C.): 3%
- resistance to hydrolysis ([2]; aqueous solutions): excellent resistance to hydrolysis
- % ILS (percent increase in life span relative to untreated controls) (murine P388 leukemia; [5]): 81%
- No. alive on d 30 (murine P388 leukemia; [5]): 2/7
- No. alive on d 60 (murine P388 leukemia; [5]): 0/7
- Survival, Median day of death (range) (murine P388 leukemia; [5]): 20.0 (20-35) day
- % ILS (percent increase in life span relative to untreated controls) (murine P388 leukemia; [6]): 109%
- No. alive on d 30 (murine P388 leukemia; [6]): 2/7
- No. alive on d 60 (murine P388 leukemia; [6]): 1/7
- Survival, Median day of death (range) (murine P388 leukemia; [6]): 23.0 (20-35) day
- % ILS (percent increase in life span relative to untreated controls) (murine P388 leukemia; [7]): 172%
- No. alive on d 30 (murine P388 leukemia; [7]): 3/7
- No. alive on d 60 (murine P388 leukemia; [7]): 2/7
- Survival, Median day of death (range) (murine P388 leukemia; [7]): 30.0 (20-42) day
- No. alive on d 30 (murine P388 leukemia; [8]): 5/7
- No. alive on d 60 (murine P388 leukemia; [8]): 4/7
- Survival, day of death (range only, no median) (murine P388 leukemia; [8]): 20,29 day
- No. alive on d 30 (murine P388 leukemia; [9]): 5/7
- No. alive on d 60 (murine P388 leukemia; [9]): 4/7
- Survival, day of death (range only, no median) (murine P388 leukemia; [9]): 25 to 36 days
- toxicity to mice relative to adriamycin or daunomycin (mice): significantly less toxic to mice than adriamycin or daunomycin
- IC50 (CCRF-CEM cells; CCRF-CEM cells, in vitro): 280 nM
- solubility (solubility in water; phosphate buffer, pH 7.4, aqueous buffer): 65 mg/mL (≈ 86.2 mM)
- solubility in water relative to N-trifluoroacetyladriamycin-14-valerate (solubility in water; physiological pH in the range pH 7.2-7.5): many times greater than that of N-trifluoroacetyladriamycin-14-valerate
- cytotoxicity or anti-tumor activity relative to adriamycin ([3]; vs adriamycin): greater than that of adriamycin
- cytotoxicity or anti-tumor activity relative to N-trifluoroacetyladriamycin-14-valerate ([3]; vs valerate): approximately equal to that of N-trifluoroacetyladriamycin-14-valerate

Structure (SMILES): COc1cccc2c1C(=O)c1c(O)c3c(c(O)c1C2=O)C[C@@](O)(C(=O)CO)C[C@@H]3O[C@H]1C[C@H](N)[C@H](O)[C@H](C)O1 [Adriamycin]
- % ILS (percent increase in life span relative to untreated controls) (murine P388 leukemia; [10]): 81%
- No. alive on d 30 (murine P388 leukemia; [10]): 0/7
- Survival, Median day of death (range) (murine P388 leukemia; [10]): 20.0 (18-27) day
- % ILS (percent increase in life span relative to untreated controls) (murine P388 leukemia; [11]): 90%
- No. alive on d 30 (murine P388 leukemia; [11]): 2/7
- No. alive on d 60 (murine P388 leukemia; [11]): 1/7
- Survival, Median day of death (range) (murine P388 leukemia; [11]): 21.0 (20-32) day
- % ILS (percent increase in life span relative to untreated controls) (murine P388 leukemia; [12]): 181%
- No. alive on d 30 (murine P388 leukemia; [12]): 4/7
- No. alive on d 60 (murine P388 leukemia; [12]): 2/7
- Survival, Median day of death (range) (murine P388 leukemia; [12]): 31.0 (23-36) day
- % ILS (percent increase in life span relative to untreated controls) (murine P388 leukemia; [13]): 63%
- No. alive on d 30 (murine P388 leukemia; [13]): 0/7
- Survival, Median day of death (range) (murine P388 leukemia; [13]): 18.0 (7-28) day
- No. alive on d 30 (murine P388 leukemia; [14]): 0/7
- Survival, Median day of death (range) (murine P388 leukemia; [14]): 9.0 (7-27) day
- % ILS (percent increase in life span relative to untreated controls) (murine P388 leukemia; ip, 5 mg/kg): -19%
- IC50 (CCRF-CEM cells; CCRF-CEM): 50 nM
- toxic side-effects (dose-limiting) [4]: acute myelosuppression and cumulative dose-related cardiac toxicity
